Results reported in patent US11242344B2, “(4-hydroxypyrrolidin-2-yl)-heterocyclic compounds and methods of use thereof” (Genentech, Inc., priority 2017, dated 2022).

What was measured:
[1] = tested on: MYC expression; assay: Inhibition of MYC expression in MV-4-11 cells; format: cell-based; settings: for Maximum Inhibition (%): maximum inhibition of MYC expression; for IC50: QuantiGene 2.0, geometric mean
Protocol: Pharmacologic inhibition of MYC is achievable through targeting BET bromodomains through small molecule binder or degrader mechanisms. Such inhibitors may have clinical utility given the widespread pathogenetic role of MYC in cancer. See, e.g., Mertz J, et al., “Targeting MYC dependence in cancer by inhibiting BET bromodomains,” (2011) Proc. Natl. Acad. Sci. USA, Vol. 108 (40), pp. 16669-16674.
To determine the inhibition of MYC expression, MV-4-11 cells (ATCC) were plated at 10,000 cells per well in 96-well plates in RPMI1640 media supplemented with 10% fetal bovine serum and 2 mM L-glutamine. Test compounds diluted in DMSO were transferred to the cell plates, keeping final DMSO concentration consistent at 0.1%, and incubated for 4 h at 37° C. Lysis and analysis for MYC expression were carried out using QuantiGene 2.0 reagents (Affymetrix/eBioscience, probe set cat #SA-50182) and following the vendor's instructions. Luminescence was read using an EnVision plate reader (PerkinElmer) and IC50s generated in Genedata Screener using a 4-parameter non-linear regression fit.
Effective degraders will surpass this and inhibit >95% of MYC, thus following the maximum inhibition within this assay provides valuable SAR. Where more than one measurement was performed for the same assay, the value reported is the geometric mean of all values.

[2] = target: VHL Elongin B/C complex (Homo sapiens (Human), UniProt P40337); assay: Fluorescence Polarization (FP) VHL Binding Assay; settings: VHL binding, FP assay; geometric mean where more than one measurement
Method in brief: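 FP tracer competition using His6-tagged human VHL (E55-D213) co-expressed with Elongin B and C in E. coli, final 2.64 nM, with TAMRA-labelled VHL ligand probe at 1.67 nM final. Buffer 50 mM Tris pH 8.0, 120 mM NaCl, 0.005% NP-40, 1% DMSO; 1 h at room temperature. Pre-assay compound/protein signal subtracted; IC50 from four-parameter fit.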

[3] = target: VHL co-expressed with Elongins B and C (Homo sapiens (Human), UniProt P40337); assay: Surface Plasmon Resonance Assay; format: binding; settings: SPR measured VHL affinity; geometric mean where more than one measurement
Method in brief: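 Avidin-tagged VHL co-expressed with Elongins B and C captured on a streptavidin chip. Compounds injected low-to-high concentration at 20 °C and 80 μL/min in 50 mM HEPES pH 7.2, 150 mM NaCl, 0.5 mM TCEP, 0.001% Tween 20, 0.2% PEG3350, 2% DMSO. Kinetic parameters from fits of binding curves.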

[4] = target: NanoLuc VHL fusion protein (Homo sapiens (Human), UniProt P40337); assay: VHL HEK-293 BRET Assay (NanoBRET Target Engagement); format: cell-based; settings: geometric mean where more than one measurement
Method in brief: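 HEK293 cells stably expressing NanoLuc-VHL, 2 h with compound titration and 1 uM final tracer, then Nano-Glo substrate plus extracellular NanoLuc inhibitor. BRET ratio 610/460 nm, background-corrected with no-tracer wells, normalised to DMSO and 10 uM unlabeled VHL antagonist controls; IC50 by four-parameter fit.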

Chain of VHL co-expressed with Elongins B and C (P40337 whole entry, looked up): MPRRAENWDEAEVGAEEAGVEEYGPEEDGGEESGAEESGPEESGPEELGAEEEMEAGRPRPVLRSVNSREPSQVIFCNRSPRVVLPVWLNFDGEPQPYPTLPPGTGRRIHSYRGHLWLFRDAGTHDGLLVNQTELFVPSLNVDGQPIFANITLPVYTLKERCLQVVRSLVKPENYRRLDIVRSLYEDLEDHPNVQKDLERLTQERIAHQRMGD
Chain of VHL co-expressed with Elongins B and C (Q15370 whole entry partner, looked up): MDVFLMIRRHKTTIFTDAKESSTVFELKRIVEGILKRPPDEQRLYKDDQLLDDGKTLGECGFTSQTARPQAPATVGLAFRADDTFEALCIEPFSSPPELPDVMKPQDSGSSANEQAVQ
Chain of VHL co-expressed with Elongins B and C (Q15369 whole entry partner, looked up): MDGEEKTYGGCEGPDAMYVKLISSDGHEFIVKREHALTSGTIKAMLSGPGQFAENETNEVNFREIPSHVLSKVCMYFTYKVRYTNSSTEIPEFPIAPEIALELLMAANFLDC
Chain of NanoLuc VHL fusion protein (P40337 whole entry, looked up, the tested form may be a part): as the sequence (P40337 whole entry, looked up) above
Chain of NanoLuc VHL fusion protein (Q15370 whole entry partner, looked up, the tested form may be a part): as the sequence (Q15370 whole entry partner, looked up) above
Chain of NanoLuc VHL fusion protein (Q15369 whole entry partner, looked up, the tested form may be a part): as the sequence (Q15369 whole entry partner, looked up) above
Chain of VHL Elongin B/C complex (P40337 whole entry, looked up): as the sequence (P40337 whole entry, looked up) above
Chain of VHL Elongin B/C complex (Q15370 whole entry partner, looked up): as the sequence (Q15370 whole entry partner, looked up) above
Chain of VHL Elongin B/C complex (Q15369 whole entry partner, looked up): as the sequence (Q15369 whole entry partner, looked up) above

| SMILES | IC50 ([1]; Homo sapiens, MV4-11, 4 h) [µM] | IC50 [2] [µM] | Kd [3] [µM] | IC50 [4] [µM] | IC50 ([1]; 4 h) [µM] | Maximum Inhibition (%) ([1]; 4 h) |
| --- | --- | --- | --- | --- | --- | --- |
| Cc1cc(C(C(=O)N2C[C@H](O)CC2C2=NC(=O)[C@](C)(c3ccc(-c4scnc4C)cc3)N2)C(C)C)sn1 (single isomer, unassigned) [Example 119.3] | – | 72.4 | 17.5 | 71.1 | – | – |
| Cc1ncsc1-c1ccc([C@]2(C)NC(C3C[C@@H](O)CN3C(=O)C(c3cnn(C)c3)C(C)C)=NC2=O)cc1 (single isomer, unassigned) [Example 110.2] | – | ≥ 400 | 104 | ≥ 100 | – | – |
| Cc1cc([C@H](C(=O)N2C[C@H](O)C[C@H]2C2=NO[C@](c3ccccc3)(C(F)(F)F)N2)C(C)C)on1 (mixture of isomers) [Example 114.2, (2S)-1-((2S,4R)-4-Hydroxy-2-(5-phenyl-5-(trifluoromethyl)-4,5-dihydro-1,2,4-oxadiazol-3-yl)pyrrolidin-1-yl)-3-methyl-2-(3-methylisoxazol-5-yl)butan-1-one and (2R)-1-((2S,4R)-4-Hydroxy-2-(5-phenyl-5-(trifluoromethyl)-4,5-dihydro-1,2,4-oxadiazol-3-yl)pyrrolidin-1-yl)-3-methyl-2-(3-methylisoxazol-5-yl)butan-1-one] | – | 400 | 150 | 100 | – | – |
| Cc1cc([C@H](C(=O)N2C[C@H](O)C[C@H]2C2=NO[C@@](C)(c3ccc(Br)cc3)N2)C(C)C)on1 (mixture of isomers) [Example 113.2, (2S)-1-((2S,4R)-2-(5-(4-Bromophenyl)-5-methyl-4,5-dihydro-1,2,4-oxadiazol-3-yl)-4-hydroxypyrrolidin-1-yl)-3-methyl-2-(3-methylisoxazol-5-yl)butan-1-one and (2R)-1-((2S,4R)-2-(5-(4-Bromophenyl)-5-methyl-4,5-dihydro-1,2,4-oxadiazol-3-yl)-4-hydroxypyrrolidin-1-yl)-3-methyl-2-(3-methylisoxazol-5-yl)butan-1-one] | – | 6.3 | 2.49 | 2.94 | – | – |
| Cc1ncsc1-c1ccc([C@]2(C)NC(C3C[C@@H](O)CN3C(=O)C3N(S(C)(=O)=O)CCC3(C)C)=NC2=O)cc1 (single isomer, unassigned) [Example 125.1] | – | 179 | 14.7 | 100 | – | – |
| Cc1cc([C@@H](C(=O)N2C[C@H](O)C[C@H]2C2=NOC(C)(c3ccc(Br)cc3)N2)C(C)C)on1 (mixture of isomers) [Example 113.1, (2S)-1-((2S,4R)-2-(5-(4-Bromophenyl)-5-methyl-4,5-dihydro-1,2,4-oxadiazol-3-yl)-4-hydroxypyrrolidin-1-yl)-3-methyl-2-(3-methylisoxazol-5-yl)butan-1-one and (2R)-1-((2S,4R)-2-(5-(4-Bromophenyl)-5-methyl-4,5-dihydro-1,2,4-oxadiazol-3-yl)-4-hydroxypyrrolidin-1-yl)-3-methyl-2-(3-methylisoxazol-5-yl)butan-1-one] | – | 70.6 | 24.1 | 96.9 | – | – |
| Cc1cc([C@H](C(=O)N2C[C@H](O)C[C@H]2C2=NO[C@@](c3ccccc3)(C(F)(F)F)N2)C(C)C)on1 (mixture of isomers) [Example 114.3, (2S)-1-((2S,4R)-4-Hydroxy-2-(5-phenyl-5-(trifluoromethyl)-4,5-dihydro-1,2,4-oxadiazol-3-yl)pyrrolidin-1-yl)-3-methyl-2-(3-methylisoxazol-5-yl)butan-1-one and (2R)-1-((2S,4R)-4-Hydroxy-2-(5-phenyl-5-(trifluoromethyl)-4,5-dihydro-1,2,4-oxadiazol-3-yl)pyrrolidin-1-yl)-3-methyl-2-(3-methylisoxazol-5-yl)butan-1-one] | – | 47 | 8.8 | 48.8 | – | – |

Second part, led by results:

| IC50 ([1]; Homo sapiens, MV4-11, 4 h) [µM] | IC50 [2] [µM] | Kd [3] [µM] | IC50 [4] [µM] | IC50 ([1]; 4 h) [µM] | SMILES | Maximum Inhibition (%) ([1]; 4 h) |
| --- | --- | --- | --- | --- | --- | --- |
| 0.123 | – | – | – | – | Cc1ncsc1-c1ccc(C2(C)NC(C3C[C@@H](O)CN3C(=O)C(c3cc(OCCN4CC[C@H](NC(=O)c5cc6c(cc5CS(C)(=O)=O)-c5cn(C)c(=O)c7[nH]cc(c57)CN6c5ncc(F)cc5F)C4)no3)C(C)C)=NC2=O)cc1 (single isomer, unassigned) [Example 1002.3] | 69.8 |
| – | ≥ 400 | ≥ 150 | 100 | – | Cc1cc([C@@H](C(=O)N2C[C@H](O)C[C@H]2C2=NOC3(CCCC3)N2)C(C)C)on1 [Example 127.1, (S)-1-((2S,4R)-4-hydroxy-2-(1-oxa-2,4-diazaspiro[4.4]non-2-en-3-yl)pyrrolidin-1-yl)-3-methyl-2-(3-methylisoxazol-5-yl)butan-1-one] | – |
| – | 33.6 | 5.7 | 10.7 | – | Cc1cc([C@H](C(=O)N2C[C@H](O)C[C@H]2C2=NOC(C)(c3ccccc3)N2)C(C)C)on1 (single isomer, unassigned) [Example 128.3] | – |
| – | ≥ 400 | ≥ 150 | 100 | – | Cc1ncsc1-c1ccc([C@]2(C)NC(C3C[C@@H](O)CN3C(=O)C3N(S(C)(=O)=O)CCC3(C)C)=NC2=O)cc1 (single isomer, unassigned) [Example 125.2] | – |
| – | ≥ 400 | 67.1 | ≥ 100 | – | CC/C(=C(\c1ccc(O)cc1)c1ccc(OCCN(C)C(=O)CCCOCCOc2cc(C(C(=O)N3C[C@H](O)CC3C3=NC(=O)[C@](C)(c4ccc(-c5scnc5C)cc4)N3)C(C)C)on2)cc1)c1ccccc1 (single isomer, unassigned) [Example 1003.1] | – |
| – | > 100 | – | – | 0.0261 | Cc1ncsc1-c1ccc([C@]2(C)NC(C3C[C@@H](O)CN3C(=O)C(c3cc(OCCCCCNC(=O)c4cc5c(cc4CS(C)(=O)=O)-c4cn(C)c(=O)c6[nH]cc(c46)CN5c4ncc(F)cc4F)no3)C(C)C)=NC2=O)cc1 (single isomer, unassigned) [Example 1001.4] | 75.7 |
| – | – | – | – | 0.0804 | Cc1ncsc1-c1ccc(C2(C)NC(C3C[C@@H](O)CN3C(=O)C(c3cc(OCCN4CC[C@H](NC(=O)c5cc6c(cc5CS(C)(=O)=O)-c5cn(C)c(=O)c7[nH]cc(c57)CN6c5ncc(F)cc5F)C4)no3)C(C)C)=NC2=O)cc1 (single isomer, unassigned) [Example 1002.4] | 69.9 |
| – | 58.4 | 57 | 77.9 | – | Cc1cc([C@@H](C(=O)N2C[C@H](O)C[C@H]2C2=NOC(C)(c3ccc(-c4scnc4C)cc3)N2)C(C)C)on1 (single isomer, unassigned) [Example 129.2] | – |
| – | ≥ 400 | ≥ 150 | 100 | – | Cc1cc([C@@H](C(=O)N2C[C@H](O)C[C@H]2C2=NOC(c3ccc(Br)cc3)(C(F)(F)F)N2)C(C)C)on1 (single isomer, unassigned) [Example 133.1] | – |
| – | 30.4 | 67.1 | 51.6 | – | CC/C(=C(\c1ccc(O)cc1)c1ccc(OCCN(C)C(=O)CCCOCCOc2cc(C(C(=O)N3C[C@H](O)CC3C3=NC(=O)[C@](C)(c4ccc(-c5scnc5C)cc4)N3)C(C)C)on2)cc1)c1ccccc1 (single isomer, unassigned) [Example 1003.3] | – |
